Assays:
[1] = Second order rate constant of glutathione addition to EDANS phosphonamidate, fluorescence HPLC; settings: 0.1 mM amidate, 0.1 mM glutathione, 50 mM NH4HCO3, 1 mM EDTA, pH 8.5, 1% DMF
Experimental: To study the kinetics of the thiol addition to alkyne-phosphonamidates at low concentrations, a fluorescent EDANS-based phosphonamidate was synthesized as described in chapter 1.1. Addition of glutathione as a model substrate was probed over time by fluorescence HPLC. Peak integration and normalization to unconjugated EDANS as an internal standard was applied to determine the second order rate constant of the reaction. A second order rate constant of 37.32±0.41 I/mol*s was measured.
Glutathione addition to the EDANS-phosphonamidate was conducted at a final concentration of 0.1 mM amidate, 0.1 mM glutathione and 0.02 mM EDANS as an internal standard in 50 mM NH4HCO3-buffer containing 1 mM EDTA at pH 8.5 with 1% DMF. 2.5 μl of a 20 mM stock solution of EDANS-phosphonamidate in DMF was premixed with 488 μl buffer and 5 μl of a 2 mM stock solution of EDANS in a 1:1 mixture of DMF and buffer. The reaction was started by the addition of 5 μl of a 10 mM solution of glutathione in buffer. 10 μl samples were drawn at 0, 15, 30, 60, 120, 240 and 480 minutes and acidified with 190 μl 10 mM NaOAc-Buffer (pH 5.0) and subjected to fluorescence HPLC analysis.

[2] = Stability of a vinyl phosphonamidate to different pHs by 31P-NMR in aqueous buffers; format: physicochemical; settings: room temperature
Excerpt: In a first experiment, Ethyl-N-phenyl-P-vinyl-phosphonamidate was chosen to measure stability.

[3] = Hydrolytic decay of the GSH-phosphonamidate conjugate in aqueous buffer, 31P NMR over 24 hours; format: physicochemical
Experimental: The conjugate could be isolated by semipreparative HPLC under basic conditions as a diastereomeric mixture in a yield of 61%. Having reasonable quantities of this water soluble phosphonamidate-conjugate in hand, studies could be performed in order to determine the hydrolytic properties of the phosphorus-nitrogen bond. For these studies a […] in aqeuous buffer was prepared and the hydrolysis of the phosphonamidate was characterized by monitoring the decay of the conjugate against the standard by means of ^31P NMR over 24 hours.

[4] = Rate of glutathione addition to ethyl-N-phenyl alkynyl phosphonamidate, HPLC-UV; settings: reaction with glutathione, after 15 min at pH 8.5
Experimental: The rate of the reaction was determined by HPLC. Glutathione was added to a solution of ethyl-N-phenyl alkynyl phosphonamidate in aqueous buffer at slightly basic pH. The reaction was stopped after several time points by the addition of an acidic buffer and analyzed by HPLC-UV, referring to inosine as an internal standard. FIG. 2 refers to the consumption of ethyl-N-phenyl alkynyl phosphonamidate in the reaction with glutathione at pH 8.5. HPLC UV traces were taken at different time points. Experiment was performed in triplicate.

With `C#CP(=O)(Nc1ccc(C(=O)NCCNc2cccc3c(S(=O)(=O)O)cccc23)cc1)OCC` (stereo not drawn) [EDANS-based phosphonamidate, 5-((2-(O-Ethyl-P-ethynyl-phosphonamidato-N-benzoyl)ethyl)amino)naphthalene-1-sulfonic acid] the “second order rate constant of the thiol addition” value [1] was 37.32±0.41 I/mol*s.

For `C=CP(=O)(Nc1ccccc1)OCC` (stereo not drawn) [Ethyl-N-phenyl-P-vinyl-phosphonamidate], the “stability to different pHs over time” value ([2]; aqueous buffers) was “stable over a broad pH range” and the “stability under strong acidic conditions” value ([2]; strong acidic conditions) was “P—N-bond cleavage occurred”.

In the case of `CCOP(=O)(/C=C\SC[C@H](NC(=O)CC[C@H](N)C(=O)O)C(=O)NCC(=O)O)Nc1ccccc1` (stereo partly drawn) [GSH-phosphonamidate conjugate, (Ethyl-N-phenyl-P-ethenyl-phosphonamidate)-S-glutathion conjugate], the “hydrolytic decay of the conjugate” value ([3]; slight acidic conditions, 150 mM NH4OAc-buffer, pH 4.76) is reported as “stable over the duration of the measurement” and the “hydrolytic decay of the conjugate” value ([3]; strong acidic conditions, 1 M HCL, pH 0.36) is reported as “rapid decomposition”.

In the case of `C#CP(=O)(Nc1ccccc1)OCC` (stereo not drawn) [alkynyl phosphonamidate, Ethyl-N-phenyl-P-ethynyl-phosphonamidate], the “conversion of the alkynyl phosphonamidate starting material” value [4] is reported as “more than 95%”.
